In patent US20260137819A1 (Radionetics Oncology, Inc., priority 2022, published 2026):
Like-named read-outs stand apart in the source and are kept apart here.

Target: T1, human follicle-stimulating hormone receptor (FSHR) (Homo sapiens, UniProt P23945)
T1 construct: host or cells: CHO-K1
T1 sequence (P23945 18-695): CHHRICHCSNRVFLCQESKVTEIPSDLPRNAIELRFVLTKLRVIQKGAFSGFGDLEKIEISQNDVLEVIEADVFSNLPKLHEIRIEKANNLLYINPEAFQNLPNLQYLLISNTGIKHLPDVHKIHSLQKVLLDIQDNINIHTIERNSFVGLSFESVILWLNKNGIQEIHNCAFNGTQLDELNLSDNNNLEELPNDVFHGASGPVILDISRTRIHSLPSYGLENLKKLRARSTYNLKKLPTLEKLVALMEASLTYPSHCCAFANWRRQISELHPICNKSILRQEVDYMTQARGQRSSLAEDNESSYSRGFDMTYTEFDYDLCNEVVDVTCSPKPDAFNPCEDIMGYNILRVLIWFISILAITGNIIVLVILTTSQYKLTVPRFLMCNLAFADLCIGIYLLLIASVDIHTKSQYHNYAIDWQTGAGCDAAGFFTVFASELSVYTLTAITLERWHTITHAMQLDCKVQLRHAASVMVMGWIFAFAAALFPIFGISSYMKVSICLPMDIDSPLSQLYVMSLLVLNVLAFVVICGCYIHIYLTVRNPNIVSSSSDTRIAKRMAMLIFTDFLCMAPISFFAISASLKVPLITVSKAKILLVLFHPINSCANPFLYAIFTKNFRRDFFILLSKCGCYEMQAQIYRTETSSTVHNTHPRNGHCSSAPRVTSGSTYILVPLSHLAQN
Test: Measurement of agonist cAMP production by activation of human FSHR
Assay type: cell-based
Conditions: 30 minutes at 37° C., HTRF cAMP kit
Procedure: Measurement of agonist cAMP production by activation of human FSHR
Two days prior to the assay, 5,000 CHO—K1 human FSHR cells (Eurofins #95-0119C2) stably expressing the functional human follicle-stimulating hormone receptor were plated in a 96-well tissue culture-treated plate in growth media supplemented with the appropriate selection agent. […] The cells were incubated for 30 minutes at 37° C. (the final concentrations of the compound ranged from 0-10,000 nM). After the 30-minute incubation at 37° C., lysis buffer (HRTF CAMP kit, Cisbio #62AM5PEB)w as added directly to the cells and incubated for 30-minutes at room temperature. The diluted lysate was transferred and CAMP detection and visualization antibodies (HRTF CAMP kit, Cisbio #62AM5PEB) were added and incubated for 1-24 hours at room temperature. The time-resolved fluorescent signal was read with a Tecan M1000Pro (Tecan) multiplate reader. The intracellular cAMP concentrations were calculated by regression to a standard curve and were plotted vs. the concentration of the agonists. The concentration of test compound or FSH required to generate a half maximal response EC50 were calculated using standard curve-fitting methods. All data manipulations were performed using GraphPad Prism v9.3.1 (GraphPad, San Diego, CA).

[1] = hFSHR Agonist cAMP EC50, CHO-K1 human FSHR cells
[2] = CHO-K1 human FSHR cells, read-out: hFSHR Agonist cAMP EC50

Compound	EC50 [2]	EC50 [1]
COc1cc2c(cc1-c1cccc(NC(=O)CCC(=O)NC3CCN(C(=O)CN4CCN(CC(=O)O)CCN(CC(=O)O)CCN(CC(=O)O)CC4)CC3)c1)-c1c(c(C(=O)N3CCOCC3(C)C)nn1-c1cc(Cl)cc(Cl)c1)CO2 [Compound 11]		< 10 nM
COc1cc2c(cc1-c1cccc(NC(=O)C[C@@H](N)C(=O)NC3CCN(C(=O)CN4CCN(CC(=O)O)CCN(CC(=O)O)CCN(CC(=O)O)CC4)CC3)c1)-c1c(c(C(=O)N3CCOCC3(C)C)nn1-c1cc(Cl)cc(Cl)c1)CO2 [Compound 12, (R)-2,2′,2″-(10-(2-(4-(2-amino-4-((3-(1-(3,5-dichlorophenyl)-3-(3,3-dimethylmorpholine-4-carbonyl)-7-methoxy-1,4-dihydrochromeno|4,3-clpyrazol-8-yl)phenyl)amino)-4-oxobutanamido)piperidin-1-yl)-2-oxoethyl)-1,4,7,10-tetraazacyclododecane-1,4,7-triyl)triacetic acid]	10 to 100 nM	
COc1cc2c(cc1-c1cccc(NC(=O)CCOCCOCCOCCN(CCOCCOCCOCCNC(=O)CN3CCN(CC(=O)O)CCN(CC(=O)O)CCN(CC(=O)O)CC3)CCOCCOCCOCCNC(=O)CN3CCN(CC(=O)O)CCN(CC(=O)O)CCN(CC(=O)O)CC3)c1)-c1c(c(C(=O)N3CCOCC3(C)C)nn1-c1cc(Cl)cc(Cl)c1)CO2 [Compound 13]	10 to 100 nM	
COc1cc2c(cc1-c1cccc(NC(=O)NCCNC(=O)C[C@H](O)C[C@H](O)CCNC(=O)CN3CCN(CC(=O)O)CCN(CC(=O)O)CCN(CC(=O)O)CC3)c1)-c1c(c(C(=O)N3CCOCC3(C)C)nn1-c1cc(Cl)cc(Cl)c1)CO2 [Compound 14, 2,2′,2″-(10-(2-(((3R,5R)-7-((2-(3-(3-(1-(3,5-dichlorophenyl)-3-(3,3-dimethylmorpholine-4-carbonyl)-7-methoxy-1,4-dihydrochromeno[4,3-c]pyrazol-8-yl)phenyl)ureido)ethyl)amino)-3,5-dihydroxy-7-oxoheptyl)amino)-2-oxoethyl)-1,4,7,10-tetraazacyclododecane-1,4,7-triyl)triacetic acid]	< 10 nM	
COc1cc2c(cc1-c1cccc(NC(=O)CCC(=O)N(CCOCCOCCC(=O)O)C3CCN(C(=O)CN4CCN(CC(=O)O)CCN(CC(=O)O)CCN(CC(=O)O)CC4)CC3)c1)-c1c(c(C(=O)N3CCOCC3(C)C)nn1-c1cc(Cl)cc(Cl)c1)CO2 [Compound 15, 2,2′,2″-(10-(2-(4-(N-(2-(2-(2-carboxyethoxy)ethoxy)ethyl)-4-((3-(1-(3,5-dichlorophenyl)-3-(3,3-dimethylmorpholine-4-carbonyl)-7-methoxy-1,4-dihydrochromeno[4,3-c]pyrazol-8-yl)phenyl)amino)-4-oxobutanamido)piperidin-1-yl)-2-oxoethyl)-1,4,7,10-tetraazacyclododecane-1,4,7-triyl)triacetic acid]	< 10 nM	
COc1cc2c(cc1-c1cccc(NC(=O)CCOCCOCCOCCOCCNC(=O)CN3CCN(CC(=O)O)CCN(CC(=O)O)CCN(CC(=O)O)CC3)c1)-c1c(c(C(=O)N3CCOCC3(C)C)nn1-c1cc(Cl)cc(Cl)c1)CO2 [Compound 17, 2,2′,2″-(10-(18-((3-(1-(3,5-dichlorophenyl)-3-(3,3-dimethylmorpholine-4-carbonyl)-7-methoxy-1,4-dihydrochromeno|4,3-c|pyrazol-8-yl)phenyl)amino)-2,18-dioxo-6,9,12,15-tetraoxa-3-azaoctadecyl)-1,4,7,10-tetraazacyclododecane-1,4,7-triyl)triacetic acid]	< 10 nM	
COc1cc2c(cc1-c1cccc(NC(=O)CCOCCOCCOCCOCCNC(=O)CN3CCN(CC(=O)O)CCN(CC(=O)O)CCN(CC(=O)O)CC3)c1)-c1c(c(C(=O)N3CCOCC3(C)C)nn1-c1cc(Cl)cc(Cl)c1)CO2 [Compound 17B]		< 10 nM

The next lines start with results.

EC50 [2]	Compound	EC50 [1]
10 to 100 nM	COc1cc2c(cc1-c1cccc(NC(=O)CCOCCOCCOCCOCCOCCOCCNC(=O)CN3CCN(CC(=O)O)CCN(CC(=O)O)CCN(CC(=O)O)CC3)c1)-c1c(c(C(=O)N3CCOCC3(C)C)nn1-c1cc(Cl)cc(Cl)c1)CO2 [Compound 16, 2,2′,2″-(10-(24-((3-(1-(3,5-dichlorophenyl)-3-(3,3-dimethylmorpholine-4-carbonyl)-7-methoxy-1,4-dihydrochromeno[4,3-c]pyrazol-8-yl)phenyl)amino)-2,24-dioxo-6,9,12,15,18,21-hexaoxa-3-azatetracosyl)-1,4,7,10-tetraazacyclododecane-1,4,7-triyl)triacetic acid]	
< 10 nM	COc1cc2c(cc1-c1cccc(NC(=O)CCOCCOCCOCCOCCOCCOCCNC(=O)CN3CCN(CC(=O)O)CCN(CC(=O)O)CCN(CC(=O)O)CC3)c1)-c1c(c(C(=O)N3CCOCC3(C)C)nn1-c1cc(Cl)cc(Cl)c1)CO2 [Compound 16A]	
10 to 100 nM	COc1cc2c(cc1-c1cccc(NC(=O)CCOCCOCCOCCNC(=O)CN3CCN(CC(=O)O)CCN(CC(=O)O)CCN(CC(=O)O)CC3)c1)-c1c(c(C(=O)N3CCOCC3(C)C)nn1-c1cc(Cl)cc(Cl)c1)CO2 [Compound 18, 2,2′,2″-(10-(15-((3-(1-(3,5-dichlorophenyl)-3-(3,3-dimethylmorpholine-4-carbonyl)-7-methoxy-1,4-dihydrochromeno|4,3-c|pyrazol-8-yl)phenyl)amino)-2,15-dioxo-6,9,12-trioxa-3-azapentadecyl)-1,4,7,10-tetraazacyclododecane-1,4,7-triyl)triacetic acid]	
< 10 nM	COc1cc2c(cc1-c1cccc(NC(=O)CCOCCOCCOCCNC(=O)CN3CCN(CC(=O)O)CCN(CC(=O)O)CCN(CC(=O)O)CC3)c1)-c1c(c(C(=O)N3CCOCC3(C)C)nn1-c1cc(Cl)cc(Cl)c1)CO2 [Compound 18A]	
< 10 nM	COc1cc2c(cc1-c1cccc(NC(=O)CCOCCOCCNC(=O)CN3CCN(CC(=O)O)CCN(CC(=O)O)CCN(CC(=O)O)CC3)c1)-c1c(c(C(=O)N3CCOCC3(C)C)nn1-c1cc(Cl)cc(Cl)c1)CO2 [Compound 19, 2,2′,2″-(10-(2-((2-(2-(3-((3-(1-(3,5-dichlorophenyl)-3-(3,3-dimethylmorpholine-4-carbonyl)-7-methoxy-1,4-dihydrochromeno[4,3-c]pyrazol-8-yl)phenyl)amino)-3-oxopropoxy)ethoxy)ethyl)amino)-2-oxoethyl)-1,4,7,10-tetraazacyclododecane-1,4,7-triyl)triacetic acid]	
< 10 nM	COc1cc2c(cc1-c1cccc(NC(=O)CCOCCNC(=O)CN3CCN(CC(=O)O)CCN(CC(=O)O)CCN(CC(=O)O)CC3)c1)-c1c(c(C(=O)N3CCOCC3(C)C)nn1-c1cc(Cl)cc(Cl)c1)CO2 [Compound 20, 2,2′,2″-(10-(2-((2-(3-((3-(1-(3,5-dichlorophenyl)-3-(3,3-dimethylmorpholine-4-carbonyl)-7-methoxy-1,4-dihydrochromeno[4,3-c]pyrazol-8-yl)phenyl)amino)-3-oxopropoxy)ethyl)amino)-2-oxoethyl)-1,4,7,10-tetraazacyclododecane-1,4,7-triyl)triacetic acid]	
< 10 nM	COc1cc2c(cc1-c1cccc(NC(=O)CCOCCOCCNC(=O)C3OC(CNC(=O)CN4CCN(CC(=O)O)CCN(CC(=O)O)CCN(CC(=O)O)CC4)C(O)C(O)C3O)c1)-c1c(c(C(=O)N3CCOCC3(C)C)nn1-c1cc(Cl)cc(Cl)c1)CO2 [Compound 21, 2,2′,2″-(10-(2-((((2S,3R,4R,5R,6S)-6-((2-(2-(3-((3-(1-(3,5-dichlorophenyl)-3-(3,3-dimethylmorpholine-4-carbonyl)-7-methoxy-1,4-dihydrochromeno|4,3-clpyrazol-8-yl)phenyl)amino)-3-oxopropoxy)ethoxy)ethyl)carbamoyl)-3,4,5-trihydroxytetrahydro-2H-pyran-2-yl)methyl)amino)-2-oxoethyl)-1,4,7,10-tetraazacyclododecane-1,4,7-triyl)triacetic acid]	
< 10 nM	COc1cc2c(cc1-c1cccc(NC(=O)CN(C)C(=O)CN(C)C(=O)CN(C)C(=O)CN(C)C(=O)CN(C)C(=O)CCNC(=O)CN3CCN(CC(=O)O)CCN(CC(=O)O)CCN(CC(=O)O)CC3)c1)-c1c(c(C(=O)N3CCOCC3(C)C)nn1-c1cc(Cl)cc(Cl)c1)CO2 [Compound 22]	
